Data: ChEMBL document CHEMBL5724914, “Linking interpersonal differences in gut microbiota composition and drug biotransformation activity” (2024)

assay: (§1) The drug is tested on Z-026 corresponding to metagenome with ENA study accession number: PRJEB37062 and ENA sample accession number: ERS12561825 for biotransformation under anaerobic condition. The drug concentrations were measured over 9 timepoints collected between 0 and 24 hours of incubation by liquid-chromatography-coupled mass spectrometry (LC–MS); details: 2 µM
Further: call rule not given here.

Row | Bacterial Biotransformation | SMILES
1 | Compound NOT metabolized | CC(C)NCC(O)COc1ccc(COCCOC(C)C)cc1.CC(C)NCC(O)COc1ccc(COCCOC(C)C)cc1.O=C(O)/C=C/C(=O)O (stereo not given) [BISOPROLOL FUMARATE]
2 | Compound NOT metabolized | CC(C)(C)NC[C@H](O)COc1ccccc1C1CCCC1.CC(C)(C)NC[C@H](O)COc1ccccc1C1CCCC1.O=S(=O)(O)O [PENBUTOLOL SULFATE]

assay: as §1, with “Z-012” for “Z-026”, “ERS12561812” for “ERS12561825”; details: 2 µM

Row | Bacterial Biotransformation | SMILES
3 | Compound NOT metabolized | CC(C)NCC(O)COc1ccc(COCCOC(C)C)cc1.CC(C)NCC(O)COc1ccc(COCCOC(C)C)cc1.O=C(O)/C=C/C(=O)O (stereo not given) [BISOPROLOL FUMARATE]
4 | Compound NOT metabolized | CC(C)(C)NC[C@H](O)COc1ccccc1C1CCCC1.CC(C)(C)NC[C@H](O)COc1ccccc1C1CCCC1.O=S(=O)(O)O [PENBUTOLOL SULFATE]

assay: (§2) The drug is tested on Z-011 corresponding to mouse gut metagenome with ENA study accession number: PRJEB37062 and ENA sample accession number: ERS12561811 for biotransformation under anaerobic condition. The drug concentrations were measured over 9 timepoints collected between 0 and 24 hours of incubation by liquid-chromatography-coupled mass spectrometry (LC–MS); details: 2 µM

Row | Bacterial Biotransformation | SMILES
5 | Compound metabolized | CC(C)NCC(O)COc1ccc(COCCOC(C)C)cc1.CC(C)NCC(O)COc1ccc(COCCOC(C)C)cc1.O=C(O)/C=C/C(=O)O (stereo not given) [BISOPROLOL FUMARATE]
6 | Compound NOT metabolized | CC(C)(C)NC[C@H](O)COc1ccccc1C1CCCC1.CC(C)(C)NC[C@H](O)COc1ccccc1C1CCCC1.O=S(=O)(O)O [PENBUTOLOL SULFATE]

assay: as §1, with “Z-010” for “Z-026”, “ERS12561810” for “ERS12561825”; details: 2 µM

Row | Bacterial Biotransformation | SMILES
7 | Compound NOT metabolized | CC(C)NCC(O)COc1ccc(COCCOC(C)C)cc1.CC(C)NCC(O)COc1ccc(COCCOC(C)C)cc1.O=C(O)/C=C/C(=O)O (stereo not given) [BISOPROLOL FUMARATE]
8 | Compound metabolized | CC(C)(C)NC[C@H](O)COc1ccccc1C1CCCC1.CC(C)(C)NC[C@H](O)COc1ccccc1C1CCCC1.O=S(=O)(O)O [PENBUTOLOL SULFATE]

assay: as §2, with “Z-002” for “Z-011”, “rabbit” for “mouse”, “ERS12561802” for “ERS12561811”; details: 2 µM

Row | Bacterial Biotransformation | SMILES
9 | Compound metabolized | CC(C)NCC(O)COc1ccc(COCCOC(C)C)cc1.CC(C)NCC(O)COc1ccc(COCCOC(C)C)cc1.O=C(O)/C=C/C(=O)O (stereo not given) [BISOPROLOL FUMARATE]
10 | Compound metabolized | CC(C)(C)NC[C@H](O)COc1ccccc1C1CCCC1.CC(C)(C)NC[C@H](O)COc1ccccc1C1CCCC1.O=S(=O)(O)O [PENBUTOLOL SULFATE]

assay: as §2, with “WLS-240” for “Z-011”, “human” for “mouse”, “ERS12561773” for “ERS12561811”; details: 2 µM

Row | Bacterial Biotransformation | SMILES
11 | Compound metabolized | CC(C)NCC(O)COc1ccc(COCCOC(C)C)cc1.CC(C)NCC(O)COc1ccc(COCCOC(C)C)cc1.O=C(O)/C=C/C(=O)O (stereo not given) [BISOPROLOL FUMARATE]
12 | Compound metabolized | CC(C)(C)NC[C@H](O)COc1ccccc1C1CCCC1.CC(C)(C)NC[C@H](O)COc1ccccc1C1CCCC1.O=S(=O)(O)O [PENBUTOLOL SULFATE]

assay: as §2, with “WLS-170” for “Z-011”, “human” for “mouse”, “ERS12561762” for “ERS12561811”; details: 2 µM

Row | Bacterial Biotransformation | SMILES
13 | Compound metabolized | CC(C)NCC(O)COc1ccc(COCCOC(C)C)cc1.CC(C)NCC(O)COc1ccc(COCCOC(C)C)cc1.O=C(O)/C=C/C(=O)O (stereo not given) [BISOPROLOL FUMARATE]
14 | Compound metabolized | CC(C)(C)NC[C@H](O)COc1ccccc1C1CCCC1.CC(C)(C)NC[C@H](O)COc1ccccc1C1CCCC1.O=S(=O)(O)O [PENBUTOLOL SULFATE]

assay: as §2, with “WLS-098” for “Z-011”, “human” for “mouse”, “ERS12561754” for “ERS12561811”; details: 2 µM

Row | Bacterial Biotransformation | SMILES
15 | Compound metabolized | CC(C)NCC(O)COc1ccc(COCCOC(C)C)cc1.CC(C)NCC(O)COc1ccc(COCCOC(C)C)cc1.O=C(O)/C=C/C(=O)O (stereo not given) [BISOPROLOL FUMARATE]
16 | Compound metabolized | CC(C)(C)NC[C@H](O)COc1ccccc1C1CCCC1.CC(C)(C)NC[C@H](O)COc1ccccc1C1CCCC1.O=S(=O)(O)O [PENBUTOLOL SULFATE]

assay: as §2, with “WLS-039” for “Z-011”, “human” for “mouse”, “ERS12561746” for “ERS12561811”; details: 2 µM

Row | Bacterial Biotransformation | SMILES
17 | Compound NOT metabolized | CC(C)NCC(O)COc1ccc(COCCOC(C)C)cc1.CC(C)NCC(O)COc1ccc(COCCOC(C)C)cc1.O=C(O)/C=C/C(=O)O (stereo not given) [BISOPROLOL FUMARATE]
18 | Compound metabolized | CC(C)(C)NC[C@H](O)COc1ccccc1C1CCCC1.CC(C)(C)NC[C@H](O)COc1ccccc1C1CCCC1.O=S(=O)(O)O [PENBUTOLOL SULFATE]

assay: as §2, with “WLS-038” for “Z-011”, “human” for “mouse”, “ERS12561745” for “ERS12561811”; details: 2 µM

Row | Bacterial Biotransformation | SMILES
19 | Compound NOT metabolized | CC(C)NCC(O)COc1ccc(COCCOC(C)C)cc1.CC(C)NCC(O)COc1ccc(COCCOC(C)C)cc1.O=C(O)/C=C/C(=O)O (stereo not given) [BISOPROLOL FUMARATE]
20 | Compound metabolized | CC(C)(C)NC[C@H](O)COc1ccccc1C1CCCC1.CC(C)(C)NC[C@H](O)COc1ccccc1C1CCCC1.O=S(=O)(O)O [PENBUTOLOL SULFATE]

assay: as §2, with “WLS-027” for “Z-011”, “human” for “mouse”, “ERS12561744” for “ERS12561811”; details: 2 µM

Row | Bacterial Biotransformation | SMILES
21 | Compound NOT metabolized | CC(C)NCC(O)COc1ccc(COCCOC(C)C)cc1.CC(C)NCC(O)COc1ccc(COCCOC(C)C)cc1.O=C(O)/C=C/C(=O)O (stereo not given) [BISOPROLOL FUMARATE]
22 | Compound metabolized | CC(C)(C)NC[C@H](O)COc1ccccc1C1CCCC1.CC(C)(C)NC[C@H](O)COc1ccccc1C1CCCC1.O=S(=O)(O)O [PENBUTOLOL SULFATE]

assay: as §2, with “WLS-010” for “Z-011”, “human” for “mouse”, “ERS12561743” for “ERS12561811”; details: 2 µM

Row | Bacterial Biotransformation | SMILES
23 | Compound NOT metabolized | CC(C)NCC(O)COc1ccc(COCCOC(C)C)cc1.CC(C)NCC(O)COc1ccc(COCCOC(C)C)cc1.O=C(O)/C=C/C(=O)O (stereo not given) [BISOPROLOL FUMARATE]
24 | Compound metabolized | CC(C)(C)NC[C@H](O)COc1ccccc1C1CCCC1.CC(C)(C)NC[C@H](O)COc1ccccc1C1CCCC1.O=S(=O)(O)O [PENBUTOLOL SULFATE]

assay: as §2, with “WLS-007” for “Z-011”, “human” for “mouse”, “ERS12561742” for “ERS12561811”; details: 2 µM

Row | Bacterial Biotransformation | SMILES
25 | Compound metabolized | CC(C)NCC(O)COc1ccc(COCCOC(C)C)cc1.CC(C)NCC(O)COc1ccc(COCCOC(C)C)cc1.O=C(O)/C=C/C(=O)O (stereo not given) [BISOPROLOL FUMARATE]
26 | Compound metabolized | CC(C)(C)NC[C@H](O)COc1ccccc1C1CCCC1.CC(C)(C)NC[C@H](O)COc1ccccc1C1CCCC1.O=S(=O)(O)O [PENBUTOLOL SULFATE]

details: human gut metagenome, 24 h, 2 µM

Row | Bacterial Biotransformation | SMILES
27 | Compound NOT metabolized | CC(C)NCC(O)COc1ccc(COCCOC(C)C)cc1.CC(C)NCC(O)COc1ccc(COCCOC(C)C)cc1.O=C(O)/C=C/C(=O)O (stereo not given) [BISOPROLOL FUMARATE]
28 | Compound NOT metabolized | CC(C)(C)NC[C@H](O)COc1ccccc1C1CCCC1.CC(C)(C)NC[C@H](O)COc1ccccc1C1CCCC1.O=S(=O)(O)O [PENBUTOLOL SULFATE]

details: human gut metagenome, 24 h, 2 µM; remark: another data set of the same source

Row | Bacterial Biotransformation | SMILES
29 | Compound NOT metabolized | CC(C)NCC(O)COc1ccc(COCCOC(C)C)cc1.CC(C)NCC(O)COc1ccc(COCCOC(C)C)cc1.O=C(O)/C=C/C(=O)O (stereo not given) [BISOPROLOL FUMARATE]
30 | Compound metabolized | CC(C)(C)NC[C@H](O)COc1ccccc1C1CCCC1.CC(C)(C)NC[C@H](O)COc1ccccc1C1CCCC1.O=S(=O)(O)O [PENBUTOLOL SULFATE]

details: human gut metagenome, 24 h, 2 µM; remark: another data set of the same source

Row | Bacterial Biotransformation | SMILES
31 | Compound NOT metabolized | CC(C)NCC(O)COc1ccc(COCCOC(C)C)cc1.CC(C)NCC(O)COc1ccc(COCCOC(C)C)cc1.O=C(O)/C=C/C(=O)O (stereo not given) [BISOPROLOL FUMARATE]
32 | Compound metabolized | CC(C)(C)NC[C@H](O)COc1ccccc1C1CCCC1.CC(C)(C)NC[C@H](O)COc1ccccc1C1CCCC1.O=S(=O)(O)O [PENBUTOLOL SULFATE]

details: human gut metagenome, 24 h, 2 µM; remark: another data set of the same source

Row | Bacterial Biotransformation | SMILES
33 | Compound NOT metabolized | CC(C)NCC(O)COc1ccc(COCCOC(C)C)cc1.CC(C)NCC(O)COc1ccc(COCCOC(C)C)cc1.O=C(O)/C=C/C(=O)O (stereo not given) [BISOPROLOL FUMARATE]
34 | Compound metabolized | CC(C)(C)NC[C@H](O)COc1ccccc1C1CCCC1.CC(C)(C)NC[C@H](O)COc1ccccc1C1CCCC1.O=S(=O)(O)O [PENBUTOLOL SULFATE]

details: human gut metagenome, 24 h, 2 µM; remark: another data set of the same source

Row | Bacterial Biotransformation | SMILES
35 | Compound NOT metabolized | CC(C)NCC(O)COc1ccc(COCCOC(C)C)cc1.CC(C)NCC(O)COc1ccc(COCCOC(C)C)cc1.O=C(O)/C=C/C(=O)O (stereo not given) [BISOPROLOL FUMARATE]
36 | Compound metabolized | CC(C)(C)NC[C@H](O)COc1ccccc1C1CCCC1.CC(C)(C)NC[C@H](O)COc1ccccc1C1CCCC1.O=S(=O)(O)O [PENBUTOLOL SULFATE]

details: human gut metagenome, 24 h, 2 µM; remark: another data set of the same source

Row | Bacterial Biotransformation | SMILES
37 | Compound metabolized | CC(C)NCC(O)COc1ccc(COCCOC(C)C)cc1.CC(C)NCC(O)COc1ccc(COCCOC(C)C)cc1.O=C(O)/C=C/C(=O)O (stereo not given) [BISOPROLOL FUMARATE]
38 | Compound metabolized | CC(C)(C)NC[C@H](O)COc1ccccc1C1CCCC1.CC(C)(C)NC[C@H](O)COc1ccccc1C1CCCC1.O=S(=O)(O)O [PENBUTOLOL SULFATE]

details: human gut metagenome, 24 h, 2 µM; remark: another data set of the same source

Row | Bacterial Biotransformation | SMILES
39 | Compound metabolized | CC(C)NCC(O)COc1ccc(COCCOC(C)C)cc1.CC(C)NCC(O)COc1ccc(COCCOC(C)C)cc1.O=C(O)/C=C/C(=O)O (stereo not given) [BISOPROLOL FUMARATE]
40 | Compound metabolized | CC(C)(C)NC[C@H](O)COc1ccccc1C1CCCC1.CC(C)(C)NC[C@H](O)COc1ccccc1C1CCCC1.O=S(=O)(O)O [PENBUTOLOL SULFATE]
